Measured values as given in US7056940B2, “Insecticidal 3-(2,6-disubstituted phenyl)-5-[5-arylthien-2-yl]-1,2,4-triazoles” (Dow AgroSciences LLC, priority 2001, dated 2006).

Each compound was assayed on Cotton Aphid (Aphis gossypii) (assay: Insecticidal test for cotton aphid, spray on infested squash cotyledons). Settings: 50 ppm spray, 3 days.
Type: in vivo
Procedure: Insecticidal Test for Cotton Aphid (Aphis gossypii)
To prepare spray solutions, 1 mg of each test compound was dissolved into 1 mL of a 90:10 acetone:ethanol solvent. This 1 mL of chemical solution was added to 19 mL of water containing 0.05% Tween 20 surfactant to produce a 50 ppm spray solution.
Squash cotyledons were infested with cotton aphid (all life stages) 16–20 hours prior to application of spray solution. The solution was sprayed on both sides of each infested squash cotyledon (0.5 mL×2 each side) with a sweeping action until runoff. The plants were allowed to air dry and held for 3 days in a controlled room at 26° C. and 40% RH after which time the test was graded. Grading was by actual count using a dissecting microscope and comparison of test counts to the untreated check. Results are given in Tables 1–4 as percent control based on population reduction versus the untreated.

Structure (SMILES) | CA: activity at 50 ppm against cotton aphid (% control rating)
Cn1nc(-c2c(F)cccc2Cl)nc1-c1cc(-c2ccc(C(F)(F)F)cc2F)sc1Cl | F (less than 50)
Cn1nc(-c2c(F)cccc2Cl)nc1-c1cc(-c2ccc(Cl)cc2F)sc1Cl | F (less than 50)
Cc1sc(-c2cccc(OC(F)(F)F)c2)cc1-c1nc(-c2c(F)cccc2Cl)nn1C | A (90–100)
Cc1sc(-c2ccc(Cl)cc2F)cc1-c1nc(-c2c(F)cccc2Cl)nn1C | B (80–89)
Cc1c(-c2nc(-c3c(F)cccc3Cl)nn2C)csc1-c1ccc(C(F)(F)F)cc1F | A (90–100)
Cc1sc(-c2ccc(C(F)(F)F)cc2F)cc1-c1nc(-c2c(F)cccc2Cl)nn1C | F (less than 50)
Cn1nc(-c2c(F)cccc2Cl)nc1-c1csc(-c2ccc(OC(F)(F)F)cc2F)c1 | C (70–79)

What follows are compounds tested on Beet Armyworm (Spodoptera exigua) (assay: Insecticidal test for beet armyworm, treated lepidopteran diet). Settings: on diet surface, second-instar larvae, 5 days.
Type: in vivo
Parameters: key: A: 90–100; B: 80–89; C: 70–79; D: 60–69; E: 50–59; F: less than 50; G: Inactive
Text: (§1) The compounds are useful for reducing populations of insects and mites and are useful in a method of inhibiting an insect or mite population which comprises applying to a locus of the insect or mite an effective insect- or mite-inactivating amount of a compound of formula (1). The “locus” of insects or mites is a term used herein to refer to the environment in which the insects or mites live or where their eggs are present, including the air surrounding them, the food they eat, or objects which they contact. For example, insects or mites which eat or contact edible or ornamental plants can be controlled by applying the active compound to plant parts such as the seed, seedling, or cutting which is planted, the leaves, stems, fruits, grain, or roots, or to the soil in which the roots are growing. It is contemplated that the compounds might also be useful to protect textiles, paper, stored grain, seeds, domesticated animals, buildings or human beings by applying an active compound to or near such objects. The term “inhibiting an insect or mite” refers to a decrease in the numbers of living insects or mites, or a decrease in the number of viable insect or mite eggs. The extent of reduction accomplished by a compound depends, of course, upon the application rate of the compound, the particular compound used, and the target insect or mite species. At least an inactivating amount should be used. The terms “insect-inactivating amount” and “mite-inactivating amount” are used to describe the amount, which is sufficient to cause a measurable reduction in the treated insect or mite population. Generally an amount in the range from about 1 to about 1000 ppm by weight active compound is used. For example, insects and mites which can be inhibited include, but are not limited to: • Lepidoptera—Heliothis spp., Helicoverpa spp., Spodoptera spp., Mythimna unipuncta, Agrotis ipsilon, Earias spp., Euxoa auxiliaris, Trichoplusia ni, Anticarsia gemmatalis, Rachiplusia nu, Plutella xylostella, Chilo spp., Scirpophaga incertulas, Sesamia inferens, Cnaphalocrocis medinalis, Ostrinia nubilalis, Cydia pomonella, Carposina niponensis, Adoxophyes orana, Archips argyrospilus, Pandemis heparana, Epinotia aporema, Eupoecilia ambiguella, Lobesia botrana, Polychrosis viteana, Pectinophora gossypiella, Pieris rapae, Phyllonorycter spp., Leucoptera malifoliella, Phyllocnisitis citrella • Coleoptera—Diabrotica spp., Leptinotarsa decemlineata, Oulema oryzae, Anthonomus grandis, Lissorhoptrus oryzophilus, Agriotes spp., Melanotus communis, Popillia japonica, Cyclocephala spp., Tribolium spp. • Homoptera—Aphis spp., Myzus persicae, Rhopalosiphum spp., Dysaphis plantaginea, Toxoptera spp., Macrosiphum euphorbiae, Aulacorthum solani, Sitobion avenae, Metopolophium dirhodum, Schizaphis graminum, Brachycolus noxius, Nephotettix spp., Nilaparvata lugens, Sogatella furcifera, Laodelphax striatellus, Bemisia tabaci, Trialeurodes vaporariorum, Aleurodes proletella, Aleurothrixus floccosus, Quadraspidiotus perniciosus, Unaspis yanonensis, Ceroplastes rubens, Aonidiella aurantii • Hemiptera—Lygus spp., Eurygaster maura, Nezara viridula, Piezodorus guildingi, Leptocorisa varicornis • Thysanoptera—Frankliniella occidentalis, Thrips spp., Scirtothrips dorsalis • Isoptera—Reticulitermes flavipes, Coptotermes formosanus • Orthoptera—Blattella germanica, Blatta orientalis, Gryllotalpa spp. • Diptera—Liriomyza spp., Musca domestica, Aedes spp., Culex spp., Anopheles spp. • Hymenoptera—Iridomyrmex humilis, Solenopsis spp., Monomorium pharaonis, Atta spp., Pogonomyrmex spp., Camponotus spp. • Siphonaptera—Ctenophalides spp., Pulex irritans • Acarina—Tetranychus spp., Panonychus spp., Eotetranychus carpini, Phyllocoptruta oleivora, Aculus pelekassi, Brevipalpus phoenicis, Boophilus spp., Dermacentor variabilis, Rhipicephalus sanguineus, Amblyomma americanum, Ixodes spp., Notoedres cati, Sarcoptes scabiei, Dermatophagoides spp. […]

Structure (SMILES) | BAW: activity at 400 ppm against beet armyworm (% control rating)
Cn1nc(-c2c(F)cccc2Cl)nc1-c1cc(-c2ccc(C(F)(F)F)cc2F)sc1Cl | A (90–100)
Cn1nc(-c2c(F)cccc2Cl)nc1-c1cc(-c2ccc(Cl)cc2F)sc1Cl | A (90–100)
Cc1sc(-c2cccc(OC(F)(F)F)c2)cc1-c1nc(-c2c(F)cccc2Cl)nn1C | G
Cc1sc(-c2ccc(Cl)cc2F)cc1-c1nc(-c2c(F)cccc2Cl)nn1C | A (90–100)
Cc1c(-c2nc(-c3c(F)cccc3Cl)nn2C)csc1-c1ccc(C(F)(F)F)cc1F | A (90–100)
Cc1sc(-c2ccc(C(F)(F)F)cc2F)cc1-c1nc(-c2c(F)cccc2Cl)nn1C | A (90–100)
Cn1nc(-c2c(F)cccc2Cl)nc1-c1csc(-c2ccc(OC(F)(F)F)cc2F)c1 | G

These compounds were tested on Two-spotted Spider Mite (Tetranychus urticae) (assay: Insecticidal test for two-spotted spider mite, ovicide method). Settings: cotton leaf discs, 6 days.
Type: in vivo
Parameters: key: A: 90–100; B: 80–89; C: 70–79; D: 60–69; E: 50–59; F: less than 50; G: Inactive
Procedure: Insecticidal Test for Two-spotted Spider Mite (Tetranychus urticae)
Ten adult female two-spotted spider mites were placed on eight 2.2 cm leaf discs of cotton leaf, allowed to oviposit over 24 hours, and thereafter removed. […] Discs were placed on an agar substrate and held at 24° C. and 90% RH for 6 days.

Structure (SMILES) | SM: activity against two-spotted spider mite (% control rating)
Cn1nc(-c2c(F)cccc2Cl)nc1-c1cc(-c2ccc(C(F)(F)F)cc2F)sc1Cl | G
Cn1nc(-c2c(F)cccc2Cl)nc1-c1cc(-c2ccc(Cl)cc2F)sc1Cl | A (90–100)
Cc1sc(-c2cccc(OC(F)(F)F)c2)cc1-c1nc(-c2c(F)cccc2Cl)nn1C | A (90–100)
Cc1sc(-c2ccc(Cl)cc2F)cc1-c1nc(-c2c(F)cccc2Cl)nn1C | A (90–100)
Cc1c(-c2nc(-c3c(F)cccc3Cl)nn2C)csc1-c1ccc(C(F)(F)F)cc1F | F (less than 50)
Cc1sc(-c2ccc(C(F)(F)F)cc2F)cc1-c1nc(-c2c(F)cccc2Cl)nn1C | B (80–89)
Cn1nc(-c2c(F)cccc2Cl)nc1-c1csc(-c2ccc(OC(F)(F)F)cc2F)c1 | F (less than 50)

What follows are compounds tested on Tobacco Budworm (Heliothis virescens) (assay: Insecticidal test for tobacco budworm, treated cotton cotyledon leaf disc). Settings: cotton cotyledon leaf-dip, 2nd instar larvae, 5 days.
Type: in vivo
Parameters: key: A: 90–100; B: 80–89; C: 70–79; D: 60–69; E: 50–59; F: less than 50; G: Inactive
Text: as §1

Structure (SMILES) | TBW: activity at 400 ppm against tobacco budworm (% control rating)
Cn1nc(-c2c(F)cccc2Cl)nc1-c1cc(-c2ccc(C(F)(F)F)cc2F)sc1Cl | F (less than 50)
Cn1nc(-c2c(F)cccc2Cl)nc1-c1cc(-c2ccc(Cl)cc2F)sc1Cl | F (less than 50)
Cc1sc(-c2cccc(OC(F)(F)F)c2)cc1-c1nc(-c2c(F)cccc2Cl)nn1C | G
Cc1sc(-c2ccc(Cl)cc2F)cc1-c1nc(-c2c(F)cccc2Cl)nn1C | G
Cc1c(-c2nc(-c3c(F)cccc3Cl)nn2C)csc1-c1ccc(C(F)(F)F)cc1F | B (80–89)
Cc1sc(-c2ccc(C(F)(F)F)cc2F)cc1-c1nc(-c2c(F)cccc2Cl)nn1C | G
Cn1nc(-c2c(F)cccc2Cl)nc1-c1csc(-c2ccc(OC(F)(F)F)cc2F)c1 | G

The compounds below were run on Sweetpotato Whitefly (Bemisia tabacia) (assay: Insecticidal test for sweetpotato whitefly, spray on cotton plants). Settings: 200 ppm spray, 13 days, large nymphs.
Type: in vivo
Parameters: key: A: 90–100; B: 80–89; C: 70–79; D: 60–69; E: 50–59; F: less than 50; G: Inactive
Procedure: Insecticidal Test for Sweetpotato Whitefly (Bemisia tabacia)
Four mg of each test compound was dissolved by adding 4 mL of a 90:10 acetone:ethanol solvent mixture to the vial containing the sample compound. This solution was added to 16 mL of water containing 0.05% Tween 20 surfactant to produce 20 mL of an 200 ppm spray solution.
Five-week-old cotton plants reared in a greenhouse were stripped of all foliage except for the two uppermost true leaves that were greater than 5 cm in diameter. These plants were then placed into a laboratory colony of whiteflies for two days for oviposition by the colony females. All whiteflies were then removed from the test plants with pressurized air. The spray solution was then applied to the test plants with a hand-held syringe fitted with hollow cone nozzle. One mL spray solution was applied to each leaf top and bottom for a total of 4 mL per plant. Four replications of each test compound utilized a total of 16 mL spray solution. Plants were air dried and then placed in a holding chamber (28° C. and 60% RH) for 13 days. Compound efficacy was evaluated by counting, under an illuminated magnifying glass, the number of large nymphs (3rd–4th instar) per leaf.
Percent control based on reduction of large nymphs of a test compound compared to solution-only (no test compound) sprayed plants is reported in Tables 1–4.

Structure (SMILES) | WF: activity at 200 ppm against whitefly (% control rating)
Cn1nc(-c2c(F)cccc2Cl)nc1-c1cc(-c2ccc(C(F)(F)F)cc2F)sc1Cl | F (less than 50)
Cn1nc(-c2c(F)cccc2Cl)nc1-c1cc(-c2ccc(Cl)cc2F)sc1Cl | F (less than 50)
Cc1sc(-c2cccc(OC(F)(F)F)c2)cc1-c1nc(-c2c(F)cccc2Cl)nn1C | F (less than 50)
Cc1sc(-c2ccc(Cl)cc2F)cc1-c1nc(-c2c(F)cccc2Cl)nn1C | F (less than 50)
Cc1c(-c2nc(-c3c(F)cccc3Cl)nn2C)csc1-c1ccc(C(F)(F)F)cc1F | A (90–100)
Cc1sc(-c2ccc(C(F)(F)F)cc2F)cc1-c1nc(-c2c(F)cccc2Cl)nn1C | G
Cn1nc(-c2c(F)cccc2Cl)nc1-c1csc(-c2ccc(OC(F)(F)F)cc2F)c1 | G

Each compound was assayed on Cabbage Looper (Trichoplusia ni) (assay: Insecticidal test for cabbage looper, treated cabbage leaf disc). Settings: cabbage leaf-dip, 2nd instar larvae, 5 days.
Type: in vivo
Text: as §1

Structure (SMILES) | CL: activity at 400 ppm against cabbage looper (% control rating)
Cn1nc(-c2c(F)cccc2Cl)nc1-c1cc(-c2ccc(C(F)(F)F)cc2F)sc1Cl | A (90–100)
Cn1nc(-c2c(F)cccc2Cl)nc1-c1cc(-c2ccc(Cl)cc2F)sc1Cl | A (90–100)
Cc1sc(-c2cccc(OC(F)(F)F)c2)cc1-c1nc(-c2c(F)cccc2Cl)nn1C | A (90–100)
Cc1sc(-c2ccc(Cl)cc2F)cc1-c1nc(-c2c(F)cccc2Cl)nn1C | A (90–100)
Cc1c(-c2nc(-c3c(F)cccc3Cl)nn2C)csc1-c1ccc(C(F)(F)F)cc1F | A (90–100)
Cc1sc(-c2ccc(C(F)(F)F)cc2F)cc1-c1nc(-c2c(F)cccc2Cl)nn1C | A (90–100)
Cn1nc(-c2c(F)cccc2Cl)nc1-c1csc(-c2ccc(OC(F)(F)F)cc2F)c1 | F (less than 50)
